Source: PubChem BioAssay (NCI)
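Step 1: Grow cells in 96-well plates. Step 2: Expose to compound for 48 hours at 5 concentrations. Step 3: Interpolate endpoints linearly; if unreached, use highest concentration. Abbreviation: GI50, concentration required for 50% inhibition of growth. The concentration for full growth arrest is given as TGI.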

Legend:
Experiment in all cases: DTP human tumour cell line panel, 48 h
SK-MEL-28 melanoma = test system: SK-MEL-28 melanoma
SR leukemia = test system: SR leukemia
SN12C renal = test system: SN12C renal
SK-OV-3 ovarian = test system: SK-OV-3 ovarian
OVCAR-3 ovarian = test system: OVCAR-3 ovarian
HCT-15 colon = test system: HCT-15 colon
OVCAR-8 ovarian = test system: OVCAR-8 ovarian
IGROV1 ovarian = test system: IGROV1 ovarian
A498 renal = test system: A498 renal
SF-268 CNS = test system: SF-268 CNS

| SMILES | GI50 (SK-MEL-28 melanoma) [µM] | TGI (SK-MEL-28 melanoma) [µM] | GI50 (SR leukemia) [µM] | TGI (SR leukemia) [µM] | GI50 (SN12C renal) [µM] | TGI (SN12C renal) [µM] | GI50 (SK-OV-3 ovarian) [µM] | TGI (SK-OV-3 ovarian) [µM] | GI50 (OVCAR-3 ovarian) [µM] | TGI (OVCAR-3 ovarian) [µM] | GI50 (HCT-15 colon) [µM] | TGI (HCT-15 colon) [µM] | GI50 (OVCAR-8 ovarian) [µM] | TGI (OVCAR-8 ovarian) [µM] | GI50 (IGROV1 ovarian) [µM] | TGI (IGROV1 ovarian) [µM] | GI50 (A498 renal) [µM] | TGI (A498 renal) [µM] | GI50 (SF-268 CNS) [µM] | TGI (SF-268 CNS) [µM] |
| --- | --- | --- | --- | --- | --- | --- | --- | --- | --- | --- | --- | --- | --- | --- | --- | --- | --- | --- | --- | --- |
| CN(C)c1ccc(N=C(C#N)c2nc(N)nc(N3CCOCC3)n2)cc1 | 19.5 | 48.4 | 34.9 | > 100 | 28.8 | 98.5 | 66.2 | > 100 | 34.6 | > 100 | 52.9 | > 100 | 38.1 | > 100 | 34 | > 100 |  |  |  |  |
| COc1cc2c(cc1OCCCN1CCN(CCCOc3cc4c(cc3OC)C(=O)C3CCC[C@H]3C=N4)CC1)N=C[C@@H]1CCCC1C2=O (some centres not stated) | 32.9 | > 100 | 0.367 | > 100 | 10.4 | > 100 | 63.5 | > 100 | 8.17 | 60.6 | 53.9 | > 100 | 11.6 | > 52.3 | 3.27 | > 23.6 | 2.17 | 7.49 | 3 | > 100 |
| Cn1cc(-c2csc(-c3cn(C)c4ncccc34)n2)c2ccccc21 | 1.23 | > 100 | 0.0961 | > 43.9 | 3.07 | > 100 | 0.544 | 15.7 | 0.143 | 1.3 | 0.23 | > 100 | 0.666 | 22.7 | 1.28 | 33.6 | 0.496 | 8.65 | 1.12 | 37.4 |
| CC(=O)OCC1OC(n2cnc3c(I)nc(I)nc32)C(OC(C)=O)C1OC(C)=O (configuration not stated) |  | 28.5 |  | 11.8 |  | 26.7 |  |  |  | 20.1 |  | 15.6 |  | 24.1 |  | 19.8 |  | 38.3 |  | 28.5 |
| Nc1nccc(C#Cc2cncnc2Nc2ccc(OCc3cccc(F)c3)c(Cl)c2)n1 | 4.57 | 8.29 | 3.18 | > 25 | 3.22 | 9.98 | 7.22 | > 22.5 | 3.83 | 7.18 | 3.69 | 11.4 | 4.94 | 24.8 | 5.1 | 20 | 5.05 | > 14.3 | 4.5 | 9.28 |
| Cc1cc(N(CCC#N)CCC#N)ccc1N=Nc1ccc([N+](=O)[O-])cc1 |  | > 100 |  | > 100 |  | > 100 |  | > 10 |  | > 100 |  | > 100 |  | 56.9 |  |  |  | > 100 |  | > 100 |
| COC(=O)C12C3C=CC(O3)C1C1C=CC2O1 (configuration not stated) |  | > 100 |  | > 100 |  | > 100 |  | > 100 |  | > 100 |  | > 100 |  | > 100 |  | > 100 |  |  |  | > 100 |
| CCN1N=CSC12C(=O)N(c1ccccc1)C(=O)N2c1ccccc1 (configuration not stated) |  | > 100 |  | > 100 |  | > 100 |  | > 100 |  | > 100 |  |  |  | > 100 |  | > 100 |  | > 100 |  | > 100 |
| COc1cc(-c2[nH]ncc2CCCC(=O)Nc2ccccc2[N+](=O)[O-])ccc1O |  | > 100 |  | > 100 |  | > 100 |  | > 100 |  |  |  | > 100 |  | > 100 |  | > 100 |  | > 100 |  | > 100 |
| O=[N+]([O-])c1ccc(N=Nc2c(O)[nH]c3ccc(Br)cc23)c([N+](=O)[O-])c1 |  | 10.3 |  | 10.5 |  | 11.4 |  | 34.7 |  | 19.3 |  | 11.6 |  | 18.9 |  | 45.7 |  |  |  | 16.6 |
| O=S(=O)(Nc1ccc2ccc3cccc4ccc1c2c34)c1ccccc1 |  | > 100 |  | > 100 |  | 65.4 |  | > 100 |  | 48.9 |  | > 100 |  | > 100 |  | > 100 |  |  |  | > 100 |
| Cn1cccc1C1CC(=O)N(CCC[Se]C#N)C1=O (configuration not stated) | 2.24 | 5.96 | 2.76 | > 100 |  |  | 3.22 | 6.72 | 1.92 | 3.99 | 2.35 | 6.43 | 2.05 | 4.44 | 1.86 | 4.68 | 1.3 | 2.78 | 1.92 | 3.92 |
| NC(=NCc1ccccc1)N/N=C\c1ccnc2ccccc12 |  | 25.1 |  | 4.98 |  | 29.6 |  | 29.7 |  | 27.2 |  | 37.4 |  | 29.9 |  |  |  | 25.2 |  | 28.6 |
| CNS(=O)(=O)NN(C)S(=O)(=O)c1ccc(C)cc1 |  | > 100 |  | > 100 |  | > 100 |  | > 100 |  | > 100 |  |  |  | > 100 |  | > 100 |  | > 100 |  | > 100 |
| O=C1c2cccnc2-c2nc(-c3ccccc3)cc3c2c1nc1ccccc13 | 14.8 | 29.8 |  |  | 7.14 | 21.1 | 9.58 | 25.2 | 0.31 | > 100 | 1.13 | 5.02 | 3.06 | > 63.1 | 2.35 | 8.92 | 17.1 | 31.2 | 3.93 | 18.8 |
| CC[C@]12C=CCN3CC[C@]4(C(=C(C(=O)OC)C1)Nc1ccccc14)[C@@H]32 | 4.49 | 17.9 | 2.55 | 30.7 | 3.62 | 18.2 |  |  | 2.45 | 7.51 | 2.68 | 10.4 | 3.75 | > 100 | 5.8 | 20.6 | 7.12 | 20.2 | 4.6 | 19.3 |
| Nc1ncn([C@@H]2C=C(CO)C(O)C2O)c(=O)n1 (some centres not stated) |  | > 100 |  |  |  | > 100 |  | > 100 |  | > 100 |  | > 100 |  | > 100 |  | > 100 |  | > 100 |  | > 100 |
| Cc1cc(C)c2c(c1C)CN1CN2Cc2c(C)c(C)cc(C)c21 |  | > 100 |  | > 100 |  | > 100 |  | > 100 |  | > 100 |  | > 100 |  | > 100 |  | > 100 |  |  |  | > 100 |
| Nc1ccc(C(=O)O)c2[nH]c3ccccc3c(=O)c12 |  |  |  | > 100 |  | > 100 |  | > 100 |  |  |  | > 100 |  | > 100 |  | > 100 |  | > 100 |  | > 100 |
| c1ccc(CNc2nc(Nc3ccc(-c4nc5ccccc5[nH]4)cc3)c3cn[nH]c3n2)cc1 | 2.15 | 6.68 |  |  | 2.75 | 7.37 | 3.97 | 17.8 | 1.61 | 3.3 | 1.89 | 7.65 | 2.57 | 6.73 | 2.49 | 6.99 | 2.93 | 8.22 | 2.37 | 7.1 |
| CC(=O)[CH-]C(=O)c1ccccc1.CC(=O)[CH-]C(=O)c1ccccc1.[O-]Cc1cccs1.[O-]Cc1cccs1.[Ti+4] | 43.8 | > 100 |  |  | 36.8 | > 100 | > 100 | > 100 | > 100 | > 100 | 20 | 46.2 | > 100 | > 100 | 89.9 | > 100 | > 100 | > 100 | > 100 | > 100 |
| COc1ccccc1NS(=O)(=O)c1cc(C(C)(C)C)ccc1OCCOc1ccc(C(C)(C)C)cc1S(=O)(=O)Nc1ccccc1OC |  | > 100 |  |  |  | > 100 |  | > 100 |  | > 100 |  | > 100 |  | > 100 |  | > 100 |  | > 100 |  | > 100 |
| CC1(C)CC(C2CC(C)(C)CC(C)(C)[C@H]2O)[C@@H](O)C(C)(C)C1 (some centres not stated) |  | > 100 |  | > 100 |  | > 100 |  | > 100 |  | > 100 |  | > 100 |  | > 100 |  | > 100 |  |  |  | > 100 |
| COc1ccc(C=O)c(N(C)C(=O)C(C)(C)C)c1 |  | > 100 |  |  |  | > 100 |  | > 100 |  | > 100 |  | > 100 |  | > 100 |  | > 100 |  | > 100 |  | > 100 |
| Nc1cc2c3c(cccc3c1)C(=O)N(CCN1CCN(CCN3C(=O)c4cccc5cc(N)cc(c45)C3=O)CC1)C2=O |  | > 100 |  |  |  | > 100 |  | > 100 |  | > 100 |  | > 100 |  | > 100 |  | > 100 |  | > 100 |  | > 100 |
| C[C@@H](Oc1cc(-n2cnc3ccc(OCC4CCN(C)CC4)cc32)sc1C(N)=O)c1ccccc1C(F)(F)F | 0.637 | 4.58 |  |  | 0.319 | 4.28 | 0.143 | 2.25 | 0.0801 | 2.86 | 0.126 | 3.2 | 0.0896 | 2.85 | 0.217 | 4.41 | 0.295 | 1.56 | 0.14 | 3.86 |
